Measurements reported in ChEMBL document CHEMBL1201862, “PubChem BioAssay data set” (2004).
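The compound was tested at five concentrations on cells cultured in 96-well plates, with a 48-hour exposure period. GI50 marks 50% less growth.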 Active and inactive are the calls of the source. No stated cut-off is given here; in the data, active = GI50 up to about 1.1 µM and inactive = higher.

Legend:
Test in all cases: inhibition of tumour cell growth, NCI panel, 48 h
MCF7 = tested on: MCF7
TK-10 = tested on: TK-10
SW-620 = tested on: SW-620
SK-MEL-2 = tested on: SK-MEL-2
SF-268 = tested on: SF-268
SF-295 = tested on: SF-295
PC-3 = tested on: PC-3
KM12 = tested on: KM12
HCT-15 = tested on: HCT-15
LOX IMVI = tested on: LOX IMVI
Hs-578T = tested on: Hs-578T
SNB-19 = tested on: SNB-19
SF-539 = tested on: SF-539
MDA-MB-435 = tested on: MDA-MB-435
HL-60 = tested on: HL-60
EKVX = tested on: EKVX
SN12C = tested on: SN12C
UACC-62 = tested on: UACC-62
K562 = tested on: K562
HOP-62 = tested on: HOP-62
MDA-MB-231 = tested on: MDA-MB-231
OVCAR-3 = tested on: OVCAR-3
SK-MEL-28 = tested on: SK-MEL-28
NCI-H522 = tested on: NCI-H522
SNB-75 = tested on: SNB-75
SK-MEL-5 = tested on: SK-MEL-5
U-251 = tested on: U-251
SK-OV-3 = tested on: SK-OV-3
NCI-H460 = tested on: NCI-H460
RPMI-8226 = tested on: RPMI-8226
OVCAR-5 = tested on: OVCAR-5
CAKI-1 = tested on: CAKI-1
HOP-92 = tested on: HOP-92
NCI/ADR-RES = tested on: NCI/ADR-RES
DU-145 = tested on: DU-145
UO-31 = tested on: UO-31
HT-29 = tested on: HT-29
HCT-116 = tested on: HCT-116
786-0 = tested on: 786-0
MOLT-4 = tested on: MOLT-4
CCRF-CEM = tested on: CCRF-CEM
BT-549 = tested on: BT-549
A549 = tested on: A549
T47D = tested on: T47D
OVCAR-4 = tested on: OVCAR-4
NCI-H226 = tested on: NCI-H226
IGROV-1 = tested on: IGROV-1
OVCAR-8 = tested on: OVCAR-8
SR = tested on: SR
HCC 2998 = tested on: HCC 2998
Malme-3M = tested on: Malme-3M
A498 = tested on: A498
NCI-H23 = tested on: NCI-H23
ACHN = tested on: ACHN
MDA-N = tested on: MDA-N
COLO 205 = tested on: COLO 205
RXF 393 = tested on: RXF 393
M14 = tested on: M14
UACC-257 = tested on: UACC-257
KM-20L2 = tested on: KM-20L2
LXFL 529 = tested on: LXFL 529
DMS-114 = tested on: DMS-114
XF498 = tested on: XF498
DMS-273 = tested on: DMS-273
SNB-78 = tested on: SNB-78
M19-MEL = tested on: M19-MEL
DLD-1 = tested on: DLD-1

Measured: GI50

O=C(NNc1ccccc1)c1ccc(Cl)c(Cl)c1
15500 nM: HCT-15
active: MCF7 585 nM | SW-620 108 nM | SK-MEL-2 875 nM | SF-295 67.6 nM | KM12 114 nM | LOX IMVI 43.8 nM | SF-539 71.8 nM | MDA-MB-435 206 nM | HL-60 56.9 nM | UACC-62 66.7 nM | K562 28.1 nM | NCI-H522 574 nM | NCI-H460 219 nM | RPMI-8226 603 nM | CAKI-1 259 nM | T47D 918 nM | MDA-N 122 nM | COLO 205 169 nM | M14 324 nM
inactive: TK-10 20700 nM | SF-268 1450 nM | PC-3 25200 nM | Hs-578T 28500 nM | SNB-19 25800 nM | EKVX 4390 nM | SN12C 27900 nM | HOP-62 54600 nM | MDA-MB-231 35600 nM | OVCAR-3 4700 nM | SK-MEL-28 > 100000 nM | SNB-75 25800 nM | SK-MEL-5 1300 nM | U-251 18200 nM | SK-OV-3 21100 nM | OVCAR-5 57000 nM | HOP-92 > 78900 nM | NCI/ADR-RES 5250 nM | DU-145 26900 nM | UO-31 2440 nM | HT-29 15700 nM | HCT-116 14000 nM | 786-0 41000 nM | MOLT-4 21500 nM | CCRF-CEM 1120 nM | BT-549 6810 nM | A549 6590 nM | OVCAR-4 16200 nM | NCI-H226 29900 nM | IGROV-1 13200 nM | OVCAR-8 21200 nM | SR 20300 nM | HCC 2998 2310 nM | Malme-3M 18600 nM | A498 5200 nM | NCI-H23 34400 nM | ACHN 11300 nM | RXF 393 19300 nM

O=C(NCCNCCNC(=O)c1cc(-c2ccccc2)nc2ccccc12)c1cc(-c2ccccc2)nc2ccccc12
2920 nM: HCT-15
inactive: MCF7 1780 nM | TK-10 2400 nM | SW-620 1750 nM | SK-MEL-2 1820 nM | SF-268 2840 nM | SF-295 1670 nM | PC-3 2750 nM | KM12 1910 nM | LOX IMVI 1690 nM | Hs-578T 2730 nM | SNB-19 3210 nM | SF-539 2000 nM | MDA-MB-435 1820 nM | HL-60 1870 nM | EKVX 4470 nM | SN12C 2370 nM | UACC-62 2090 nM | K562 2160 nM | HOP-62 1570 nM | MDA-MB-231 2510 nM | OVCAR-3 2240 nM | SK-MEL-28 1770 nM | NCI-H522 1930 nM | SNB-75 1920 nM | SK-MEL-5 1770 nM | U-251 2080 nM | SK-OV-3 7460 nM | NCI-H460 1500 nM | RPMI-8226 2730 nM | OVCAR-5 2170 nM | CAKI-1 9790 nM | HOP-92 1820 nM | NCI/ADR-RES 1760 nM | DU-145 2380 nM | UO-31 2640 nM | HT-29 1810 nM | HCT-116 1700 nM | 786-0 1690 nM | MOLT-4 2370 nM | CCRF-CEM 3770 nM | BT-549 7910 nM | A549 3370 nM | T47D 2720 nM | OVCAR-4 2000 nM | NCI-H226 2910 nM | IGROV-1 2520 nM | OVCAR-8 2040 nM | SR 2570 nM | HCC 2998 1730 nM | Malme-3M 1920 nM | A498 2700 nM | NCI-H23 3180 nM | ACHN 2140 nM | MDA-N 1670 nM | COLO 205 1980 nM | UACC-257 1980 nM | RXF 393 1670 nM | M14 1600 nM

N=C(N)NS(=O)(=O)c1ccc(Nc2c3ccccc3nc3c(C(=O)NCCO)cccc23)cc1
inactive: SNB-75 22600 nM
236 nM: HCT-15
active: MCF7 28.2 nM | TK-10 281 nM | SW-620 188 nM | SK-MEL-2 199 nM | SF-268 171 nM | SF-295 263 nM | PC-3 210 nM | KM12 177 nM | LOX IMVI 143 nM | Hs-578T 209 nM | SNB-19 221 nM | SF-539 193 nM | MDA-MB-435 173 nM | HL-60 293 nM | EKVX 248 nM | SN12C 202 nM | UACC-62 167 nM | K562 216 nM | HOP-62 186 nM | MDA-MB-231 207 nM | OVCAR-3 142 nM | SK-MEL-28 248 nM | NCI-H522 158 nM | SK-MEL-5 142 nM | U-251 184 nM | SK-OV-3 236 nM | NCI-H460 127 nM | RPMI-8226 162 nM | OVCAR-5 244 nM | CAKI-1 205 nM | HOP-92 192 nM | NCI/ADR-RES 296 nM | DU-145 214 nM | UO-31 175 nM | HT-29 160 nM | HCT-116 223 nM | 786-0 191 nM | MOLT-4 88.5 nM | CCRF-CEM 416 nM | BT-549 143 nM | A549 157 nM | T47D 148 nM | OVCAR-4 261 nM | NCI-H226 142 nM | IGROV-1 141 nM | OVCAR-8 185 nM | SR 136 nM | HCC 2998 190 nM | Malme-3M 156 nM | A498 130 nM | NCI-H23 167 nM | ACHN 219 nM | MDA-N 267 nM | COLO 205 160 nM | UACC-257 243 nM | RXF 393 173 nM | M14 183 nM

CN(C)CCOc1ccc2[nH]c(C(=O)N3CC(CCl)c4c3cc(N)c3ccccc43)cc2c1 (centres undefined)
< 10 nM: HCT-15
active: MCF7 < 10 nM | TK-10 < 10 nM | SW-620 < 10 nM | SK-MEL-2 < 10 nM | SF-268 < 10 nM | SF-295 < 10 nM | PC-3 < 10 nM | KM12 < 10 nM | LOX IMVI < 10 nM | Hs-578T < 10 nM | SNB-19 < 10 nM | SF-539 < 10 nM | MDA-MB-435 < 10 nM | HL-60 < 10 nM | EKVX < 10 nM | SN12C < 10 nM | UACC-62 < 10 nM | K562 < 10 nM | HOP-62 < 10 nM | MDA-MB-231 < 10 nM | OVCAR-3 < 10 nM | SK-MEL-28 < 10 nM | NCI-H522 < 10 nM | SNB-75 < 10 nM | SK-MEL-5 < 10 nM | U-251 < 10 nM | SK-OV-3 < 10 nM | NCI-H460 < 10 nM | RPMI-8226 < 10 nM | OVCAR-5 < 10 nM | CAKI-1 < 10 nM | HOP-92 < 10 nM | NCI/ADR-RES < 10 nM | DU-145 < 10 nM | UO-31 < 10 nM | HT-29 < 10 nM | HCT-116 < 10 nM | 786-0 < 10 nM | MOLT-4 < 10 nM | CCRF-CEM < 10 nM | BT-549 < 10 nM | A549 < 10 nM | T47D < 10 nM | OVCAR-4 < 10 nM | NCI-H226 < 10 nM | IGROV-1 < 10 nM | OVCAR-8 < 10 nM | SR < 10 nM | HCC 2998 < 10 nM | Malme-3M < 10 nM | A498 < 10 nM | NCI-H23 < 10 nM | ACHN < 10 nM | MDA-N < 10 nM | COLO 205 < 10 nM | UACC-257 < 10 nM | M14 < 10 nM

Cc1ccc(S(=O)(=O)N2CCC3(C(/C=C/c4ccccc4)=Nc4ccccc43)C2c2ccccc2)cc1 (centres undefined)
> 100000 nM: HCT-15
inactive: TK-10 > 100000 nM | SW-620 1520 nM | SF-268 > 100000 nM | SF-295 > 100000 nM | KM12 > 100000 nM | LOX IMVI > 100000 nM | KM-20L2 > 100000 nM | LXFL 529 > 100000 nM | SNB-19 > 100000 nM | SF-539 > 100000 nM | DMS-114 > 100000 nM | HL-60 > 100000 nM | EKVX > 100000 nM | SN12C > 100000 nM | UACC-62 > 100000 nM | K562 21300 nM | HOP-62 63500 nM | OVCAR-3 > 100000 nM | SK-MEL-28 > 100000 nM | NCI-H522 > 100000 nM | SNB-75 87300 nM | SK-MEL-5 > 100000 nM | U-251 > 100000 nM | SK-OV-3 > 100000 nM | NCI-H460 > 100000 nM | RPMI-8226 > 100000 nM | OVCAR-5 > 100000 nM | CAKI-1 > 100000 nM | HOP-92 > 100000 nM | UO-31 61700 nM | HT-29 > 100000 nM | HCT-116 > 100000 nM | 786-0 > 100000 nM | CCRF-CEM > 100000 nM | A549 > 100000 nM | XF498 63100 nM | DMS-273 > 100000 nM | OVCAR-4 > 100000 nM | NCI-H226 37900 nM | IGROV-1 1410 nM | OVCAR-8 > 100000 nM | SNB-78 > 100000 nM | SR > 100000 nM | M19-MEL > 100000 nM | HCC 2998 > 100000 nM | Malme-3M > 100000 nM | A498 > 100000 nM | DLD-1 > 100000 nM | NCI-H23 > 100000 nM | ACHN > 100000 nM | COLO 205 > 100000 nM | UACC-257 > 100000 nM | RXF 393 > 100000 nM | M14 > 100000 nM
